Data published in US6706491B1, “Reagents and methods for identifying and modulating expression of genes regulated by p21” (The Board of Trustees of the University of Illinois, priority 1999, dated 2004).

What was measured:
HS 15.T cells = experiment: Mitogenic activity assay (3H-thymidine incorporation); assay type: cell-based, human; conditions: media supplemented with 1% or 2% FCS; 60 hr then 24 hrs label
Method: (§1) In these experiments, conditioned media were prepared by plating 10^6 p12-9 cells per 15 cm plate in the presence of DMEM/10% FCS. The next day, IPTG was added to a final concentration of 50 μM, and this media was replaced three days later with DMEM supplemented with 0.5% FCS and 50 μM IPTG. Two days later (days 3-5 of IPTG treatment), this conditioned media was collected and stored at 4° C. up to 15 days before use. Control media were prepared by adding IPTG-free DMEM/0.5% FCS to untreated cells grown to the same density as IPTG-treated cells and collecting the media two days thereafter.
The slow-growing human fibrosarcoma cell line HS 15.T was used to detect mitogenic activity in these conditioned media. For mitogenic activity assays, both types of conditioned media, as well as fresh media and 1:1 mixtures of conditioned media and fresh media were used to test mitogenic activity. In these experiments, the conditioned media were supplemented with 1% or 2% FCS. Briefly, HS 15.T cells were plated in 12-well plates at 15,000 cells per well. Two days later, these cells were cultured in different types of media. […] Cells were then collected and their ^3H-thymidine incorporation determined as described by Mosca et al. (1992, Mol. Cell. Biol. 12: 4375-4383).

p21-9 cells [1] = experiment: 3H-thymidine labeling index (autoradiography) in p21-9 cells; assay type: cell-based, human
Method: (§2) Cell growth in the presence of IPTG was assayed in three ways: measuring ^3H-thymidine incorporation (termed the “labeling index”); observing the number of mitotic cells in the culture by microscopy (termed the “mitotic index”) and determining the distribution of the culture cells in different portions of the cell cycle (termed the “cell cycle distribution”).
^3H-thymidine incorporation assays were performed substantially as described by Dimri et al. (1995, Proc. Natl. Acad. Sci. USA 92: 9363-9367). Cells were cultured in the presence of ^3H-thymidine for 3h, and then analyzed by autoradiography. DNA replication as determined by autoradiography ceased entirely by 9 hours after addition of IPTG to the culture media (FIG. 3A).

C8 cells = experiment: Apoptosis / cell survival assay in low serum; assay type: cell-based, mouse; conditions: IPTG added by itself
Method: as §1
The effect of this conditioned media on apoptosis was also determined. These experiments used a mouse embryo fibroblast line C8, immortalized by E1A. […] Apoptosis was analyzed by plating 3×10^5 C8 cells per 6-cm plate, and replacing the media on the following day with fresh media supplemented with 0.4% serum or with conditioned media (no fresh serum added). DNA content analysis and DAPI staining were carried out after 24 hrs and 48 hrs, and relative cell numbers were measured by methylene blue staining (Perry et al., 1992, Mutai. Res. 276: 189-197) after 48 hrs in low-serum media.

p21-9 cells [2] = experiment: Mitotic index (microscopy after DAPI staining) in p21-9 cells; assay type: cell-based, human
Method: as §2
(§3) The mitogenic index was determined by observing cells microscopically and calculating the number of cells in mitosis after staining with 5 μg/mL 4,6-diamino-2-phenylindole (DAPI), and images were collected using a Leica DMIRB fluorescence microscope and Vaytek (Fairfield, Iowa) imaging system. Microscopically-detectable mitotic cells disappeared from these cultures in the presence of IPTG in two stages: the first occurring between 0-4 hours after IPTG addition (wherein the mitotic index dropped from about 15% in untreated cells to about 5% in IPTG-treated cells) and then again between about 10-14 hours after IPTG addition (wherein the mitotic index dropped to zero at about 13 hours after IPTG addition (FIG. 3B).

p21-9 cells [3] = experiment: Colony assay for recovery from IPTG treatment; assay type: cell-based, human; conditions: for decreased clonogenicity: 3-5 days treatment; for reduction of clonogenicity: continuous exposure
Method: (§4) Colony assays for recovery from IPTG treatment were performed by plating about 2,000 p21-9 cells per 10 cm culture dish in DMEM/10% FCS and the presence or absence of IPTG. Cells were allowed to form colonies for 10 days before their clonogenic capacity was determined. p12-9 cells were treated with three concentrations of IPTG: 0.5 μM, 5 μM and 50 μM. […] In contrast, continuous exposure of the cells to 5 μM or 50 μM IPTG reduced the clonogenicity of p2l-9 cells by 80% and 100%, respectively.

p21-9 cells [4] = experiment: Morphology of mitotic figures after release from IPTG; assay type: cell-based, human; conditions: 1-2 days after release
Method: as §3
A major difference between cells that were inhibited by IPTG for one day compared with those inhibited for S days emerged, however, when the morphology of attached mitotic cells arising 1-2 days after release from IPTG was examined. […] The percentage of normal mitoses in 1-day and 5-day IPTG treated cells were 45% and 2%, respectively, which is close to the corresponding values for clonogenic recovery (38% and 1%).

p21-9 cells [5] = experiment: Cell cycle distribution (FACS, propidium iodide) in p21-9 cells; assay type: cell-based, human; conditions: after 24 hrs of 50 μM IPTG
Method: as §2
Cell cycle distribution was determined using FACS analysis of DNA content after staining with propidium iodide as described by Jordan et al. (1996, Cancer Res. 56: 816-825) using Becton Dickinson FACSort. By this time, 42-43% of IPTG-treated cells were arrested in G1 and G2, respectively, and about 15% of the cells were arrested with S-phase DNA content.

p21 = p21 induction in p21-9 cells by IPTG (p21 ELISA); assay type: cell-based, human
Method: p21 expression from the LNp21CO3 vector in p21-9 cells was induced by culturing the cells in DMEM medium containing 10% fetal calf serum (Hyclone, Logan, Utah) and IPTG. […] Upon removing the cells from IPTG-containing media, p21 expression fell about as rapidly as it had risen, returning to pre-induction levels at about 24 hours after IPTG was removed, (FIG. 2B).
as §4
Expression of 69 of these genes was individually tested by RT-PCR or northern hybridization with probes derived from inserts of the cDNA clones present in the microarray; these cDNAs were obtained from Genome Systems, Inc. In addition, enzyme-linked immunosorbent assay (ELISA) measurement of p21 protein was carried out using WAF1 ELISA kit (obtained from Oncogene Science, Uniondale, N.Y.) as described (Chang et al., 1999, Oncogene 18: 4808-4818). The following primary antibodies were used for immunoblotting: mouse monoclonal antibodies against Cdc2 (Santa Cruz), cyclin A (NeoMarkers), Plk 1 (Zymed) and Rb (PharMingen); rabbit polyclonal antibodies against MAD2 (BadCo), p107 (Santa Cruz), CTGF (Fisp-12; a gift of Dr. L. Lau), Prc 1 (a gift of Drs. W. Jiang and T. Hunter), and topoisomerase IIα (Ab0284; a gift of Dr. W. T. Beck), and sheep polyclonal antibody against. SOD2 (Calbiochem). Horse radish peroxidase (HRP)-conjugated secondary antibodies used were goat anti-mouse and goat anti-rabbit. IgG (Santa:Cruz) and rabbit anti-sheep IgG (KPL). Protein concentrations in all samples were equalized after measurement with BioRad-protein assay kit. Immunoblotting was carried out by standard procedures, and the signal was detected by chemiluminescence using LumiGlo (KPL).

## CC(C)S[C@@H]1O[C@H](CO)[C@H](O)[C@H](O)[C@H]1O [IPTG, isopropyl-β-thiogalactoside]
HS 15.T cells
  effect on 3H-thymidine incorporation by HS 15.T cells: no effect
p21-9 cells [1]; 50 μM IPTG
  time to complete cessation of DNA replication after addition of IPTG: ≤ 9 h
p21-9 cells [1]; after removal of 50 μM IPTG
  time to resumption of DNA replication after release from IPTG: about 20 hours
C8 cells
  effect on apoptosis in C8 cells: no effect on apoptosis
p21-9 cells [2]; 0-4 hours after addition of 50 μM IPTG, about 15% in untreated cells
  mitotic index: about 5%
p21-9 cells [2]; 50 μM IPTG
  time at which mitotic index dropped to zero after IPTG addition: about 13 hours
p21-9 cells [2]; after removal of 50 μM IPTG
  time to resumption of mitosis after IPTG release: about 30 hours
p21-9 cells [3]; 0.5 μM IPTG
  colony formation: did not inhibit colony formation
p21-9 cells [3]; 5 μM IPTG removed after 12 or 14 hours
  colony formation: substantially undiminished colony formation
p21-9 cells [3]; 5 μM IPTG
  decreased clonogenicity: 55-58%
  reduction of clonogenicity: 80%
p21-9 cells [3]; 50 μM IPTG removed after 12 or 14 hours
  decrease in clonogenicity: 58-63%
p21-9 cells [3]; 50 μM IPTG
  decreased clonogenicity: 95-99%
  reduction of clonogenicity: 100%
p21-9 cells [4]; 1-day IPTG treatment
  percentage of normal mitoses: 45%
p21-9 cells [4]; 5-day IPTG treatment
  percentage of normal mitoses: 2%
p21-9 cells [5]
  cells arrested in G1 and G2, respectively: 42-43%
  cells arrested with S-phase DNA content: about 15%
p21; 0.5 μM IPTG
  increase in p21 gene expression: no measurable increase over basal p21 levels
p21; 5 μM IPTG
  increase in p21 gene expression: half-maximal
p21; 50 μM IPTG
  increase in p21 gene expression: maximal increase
  time of peak p21 expression post-induction: about 24 hours
p21; IPTG-treated p21-9 cells, 50 μM IPTG
  increase in p21 levels: 15-20 fold
